Source: patent publication US11793772B2, “Pharmaceutical composition comprising THA as active ingredient for treating breast cancer” (KOREA UNITED PHARM. INC., priority 2016, dated 2023)

What was measured:
[1] = system: Polo-like kinase 1 (Plk1); experiment: Western blotting and immunocytochemistry of Plk1 downstream signals (cdc25c, cyclin B1) in tamoxifen-resistant breast cancer cells; type: cell-based, human
Description: Sodium dodecyl sulfate-polyacrylamide gel electrophoresis (SDS-PAGE) was performed using a gel electrophoresis apparatus (Mighty Small SE250, Hoefer Scientific Instruments, San Francisco). A cell lysate fraction was diluted in a sample dilution buffer [63 mM Tris (pH 6.8), 10% glycerol, 2% SDS, 0.0013% bromophenol blue, and 5% β-mercaptoethanol], and then electrophoresis was performed thereon in an electrode buffer (15 g of Tris, 72 g of […], and 5 g of SDS included in a 1 L solution) using a 8% to 12% gel. The electrophoresed gel was used to transfer proteins to a nitrocellulose membrane at 190 mAmps for 70 minutes in a transfer buffer (25 mM Tris, 192 mM […], and 20% v/v methanol (pH 8.3)) using a transfer electrophoresis apparatus. The nitrocellulose membrane was reacted with a primary antibody, and then reacted with horseradish peroxidase-conjugated goat anti-rabbit IgG and horseradish peroxidase-conjugated goat anti-mouse IgG as secondary antibodies for 6 hours, followed by color development using an ECL detection system (ECL chemiluminescence system, Amersham, Gaithersberg, Mass.).
To measure fluorescence expression, cells were plated in a 6-well dish (5×10^5 cells/well). Fluorescence was conjugated to cdc25c and cyclin B1 antibodies using SiteClick™ Qdot antibody labeling kits (Thermo Scientific, IL, USA), and fluorescence-conjugated cdc25c and cyclin B1 antibodies were treated in a 6-well dish, and then expression was observed through a fluorescence microscope.
(§1) Tamoxifen-resistant breast cancer cells (TAMR-MCF-7) and/or control breast cancer cells (MCF-7) were treated with 2,4,6-trihydroxyacetophenone (THA), and then it was confirmed whether Plk1 activity and cell proliferation were inhibited, using the method of Example 1.

TAMR-MCF-7 cells [2] = experiment: Real-time cell proliferation assay (IncuCyte ZOOM), TAMR-MCF-7; type: cell-based, human; conditions: TAMR-MCF-7 tamoxifen-resistant breast cancer cells; FIG. 2, FIG. 3
Description: (§2) An MCF-7 cell line was sub-cultured in high glucose Dulbeccos Modified Eagle's Medium (DMEM) containing 10% fetal bovine serum, 50 U/ml of penicillin, and 50 μg/ml of streptomycin in an incubator supplied with 5% CO2 at 37° C. to be used for experiments. A TAMR-MCF-7 cell line was cultured in high glucose Dulbeccos Modified Eagle's Medium (DMEM) containing 10% charcoal-stripped fetal bovine serum, 3 μM 4-OH-tamoxifen (Sigma-Aldrich, Mo., USA), 50 U/ml of penicillin, and 50 μg/ml of streptomycin.
(§3) To measure cell proliferation, cells were plated in a 96-well dish (5×10^3 cells/well). After drug treatment, the number of live cells was measured using an IncuCyte ZOOM live cell analysis system (Essen Bioscience, Ann Arbor, Mich., USA) at intervals of 4 hours.
as §1

MCF-7 cells = experiment: Real-time cell proliferation assay (IncuCyte ZOOM), MCF-7; type: cell-based, human; conditions: MCF-7 normal (control) breast cancer cells; FIG. 2
Description: as §2, §3, §1

TAMR-MCF-7 cells [3] = experiment: Cell cycle analysis by flow cytometry; type: cell-based, human; conditions: FIG. 4, FIG. 5
Description: To measure the cell cycle distribution, cells were plated in a 100 mm dish (5×10^5 cells/well). The cells were fixed with PBS at 4° C., refrigerated in 70% EtOH at 4° C., and cultured for 24 hours. After removing the 70% EtOH, the cells were stained with propidium iodide (PI)/Triton X-100/DNAse-free RNAse A at 37° C. for 15 minutes. 20,000 cells per experimental group were analyzed using an FACS-Calibur™ (BD Biosciences, CA, USA) machine.

TAMR-MCF-7 cells [4] = experiment: Real-time apoptosis analysis with caspase-3/7 fluorescent substrate; type: cell-based, human; conditions: caspase-3/7 selective fluorescent substrate, FIG. 6
Description: To measure apoptosis, cells were plated in a 96-well dish (5×10^3 cells/well). The cells were pre-treated with the IncuCyte ZOOM™ 96-well Caspase-3/7 apoptosis assay reagent for 3 hours and treated with a drug, and then the degree of fluorescence expression was measured using an IncuCyte ZOOM™ live cell analysis system (Essen Bioscience, Ann Arbor, Mich., USA) at intervals of 4 hours.

TAMR-MCF-7 cells [5] = experiment: Tamoxifen-resistant breast cancer cell xenograft mouse model; type: in vivo, BALB/c-nu mice
Description: In all experiments, 6-week-old female BALB/c-nu mice were raised for 1 week at the Research Center for Animal Experiments in the College of Pharmacy of the Seoul National University at a humidity of 55±5% and a temperature of 22±2° C. and under controlled ventilation conditions and adapted to the environment, and then used in the experiments according to randomized block design, and light/dark cycles were adjusted to 12 hours.
Animal experiments were carried out in accordance with the Experimental Animals Ethics Guidelines. TAMR-MCF-7 cells (5×10^6 cells) were transdermally injected into the left mammary gland of nude mice, and tumor sizes were measured using a caliper twice a week. Tumor volume was calculated by the following formula: Tumor volume=length×width^2. Five weeks after cell transplantation, the mice were euthanized using carbon dioxide gas and the tumors were extracted and weighed.
THA was intraperitoneally administered to a tamoxifen-resistant breast cancer cell-transplanted mouse model every day for 2 weeks at a dose of 6 mg/kg based on a dose known to be effective for bile secretion in the liver. Tumor sizes and weights were measured twice a week during the administration period, and after administration was completed, tumors were extracted, and then the extracted tumor tissues were weighed. PCNA, which is a cell proliferative index, and TUNEL, which is an apoptotic index, were evaluated in the tumor tissues by immunohistochemistry staining, and some tissues were pulverized to quantify cdc25c, which is a downstream signal of Plk1, as a Plk1 activity index, and an increase or decrease in cdc25c expression was confirmed by western blotting.
In addition, THA was administered to a tamoxifen-resistant breast cancer cell-transplanted mouse model at a dose of 10 mg/kg, 30 mg/kg, or 100 mg/kg using an oral zonde needle every day for 2 weeks.

SKBR3 cells = experiment: Cell proliferation inhibitory activity per human breast cancer cell line, SKBR3; type: cell-based; conditions: as treatment amount increased, FIG. 10A
Description: (§4) To measure cell proliferation, SKBR3, T47D, HCC1428, MDA-MD-453, MDA-MB-231, MDA-MB-468, HCC38, HCC70, and HCC1937 cells were plated in respective 96-well dishes (5×10^3 cells/well). For cell stabilization, these cells were incubated in a cell incubator at 36.5° C. for 24 hours, and then treated with a drug, and the number of live cells was measured using an IncuCyte ZOOM live cell analysis system (Essen Bioscience, Ann Arbor, Mich., USA) at intervals of 4 hours.

T47D cells = experiment: Cell proliferation inhibitory activity per human breast cancer cell line, T47D; type: cell-based; conditions: as treatment amount increased, FIG. 10A
Description: as §4

HCC1428 cells = experiment: Cell proliferation inhibitory activity per human breast cancer cell line, HCC1428; type: cell-based; conditions: as treatment amount increased, FIG. 10A
Description: as §4

MDA-MD-453 cells = experiment: Cell proliferation inhibitory activity per human breast cancer cell line, MDA-MD-453; type: cell-based; conditions: as treatment amount increased, FIG. 10B
Description: as §4

MDA-MB-231 cells = experiment: Cell proliferation inhibitory activity per human breast cancer cell line, MDA-MB-231; type: cell-based; conditions: as treatment amount increased, FIG. 10B
Description: as §4

MDA-MB-468 cells = experiment: Cell proliferation inhibitory activity per human breast cancer cell line, MDA-MB-468; type: cell-based; conditions: as treatment amount increased, FIG. 10B
Description: as §4

HCC38 cells = experiment: Cell proliferation inhibitory activity per human breast cancer cell line, HCC38; type: cell-based; conditions: as treatment amount increased, FIG. 10C
Description: as §4

HCC70 cells = experiment: Cell proliferation inhibitory activity per human breast cancer cell line, HCC70; type: cell-based; conditions: as treatment amount increased, FIG. 10C
Description: as §4

HCC1937 cells = experiment: Cell proliferation inhibitory activity per human breast cancer cell line, HCC1937; type: cell-based; conditions: as treatment amount increased, FIG. 10C
Description: as §4

[6] = system: human breast cancer cell line panel; experiment: THA reactivity according to Plk1 expression differences per human breast cancer cell line; type: cell-based; conditions: 11 breast cancer cell lines classified as low, medium, high Plk1 expression; FIGS. 11A and 11B
[7] = tamoxifen-resistant breast cancer cells, western blotting and immunocytochemistry, FIG. 1
[8] = intraperitoneal 6 mg/kg, immunohistochemistry, FIGS. 7D and 7E

For `CC(=O)c1c(O)cc(O)cc1O` [THA, 2,4,6-trihydroxyacetophenone], the Plk1 inhibitory effect ([1]; concluded from cdc25c decrease and cyclin B1 increase) was “had a Plk1 inhibitory effect”, the “compensatory cyclin B1 expression” value [1, 7] was “increased compensatory cyclin B1 expression” and the “expression of cdc25c, downstream signal of Plk1” value [1, 7] was “reduced the expression of cdc25c”. For the same molecule, the “inhibition of cell proliferation” value (TAMR-MCF-7 cells [2]) was “more strongly inhibited cell proliferation”, the “inhibition of cell proliferation” value (MCF-7 cells) was “inhibited cell proliferation” and the cell cycle inhibition (TAMR-MCF-7 cells [3]) was “S phase arrest”. The apoptotic index (TAMR-MCF-7 cells [4]) was “significantly increased”, the tumor size (TAMR-MCF-7 cells [5]; intraperitoneal 6 mg/kg every day for 2 weeks, compared to control, FIG. 7A) was “significantly reduced” and the tumor weight (TAMR-MCF-7 cells [5]; intraperitoneal 6 mg/kg every day for 2 weeks, compared to control, FIG. 7C) was “significantly reduced”. The “body weight of each mouse” value (TAMR-MCF-7 cells [5]; intraperitoneal 6 mg/kg every day for 2 weeks, FIG. 7B) was “maintained at a similar level”, the “PCNA, cell proliferative index, in tumor tissue” value (TAMR-MCF-7 cells [5]; [8]) was “reduced” and the “TUNEL, apoptotic index, in tumor tissue” value (TAMR-MCF-7 cells [5]; [8]) was “significantly increased”. For the same molecule, the “cdc25c expression in tumor tissue (Plk1 activity index)” value (TAMR-MCF-7 cells [5]; intraperitoneal 6 mg/kg, western blotting, FIG. 7F) was “significantly inhibited”, the tumor size (TAMR-MCF-7 cells [5]; oral 10 mg/kg, 30 mg/kg, or 100 mg/kg every day for 2 weeks, compared to control, FIG. 7G) was “significantly reduced” and the “body weight of each mouse” value (TAMR-MCF-7 cells [5]; oral 10 mg/kg, 30 mg/kg, or 100 mg/kg every day for 2 weeks, FIG. 7I) was “maintained at a similar level”. The cell proliferation (SKBR3 cells) was “cell proliferation was inhibited”, the cell proliferation (T47D cells) was “cell proliferation was inhibited” and the cell proliferation (HCC1428 cells) was “cell proliferation was inhibited”. The cell proliferation (MDA-MD-453 cells) was “cell proliferation was inhibited”, the cell proliferation (MDA-MB-231 cells) was “cell proliferation was inhibited” and the cell proliferation (MDA-MB-468 cells) was “cell proliferation was inhibited”. The cell proliferation (HCC38 cells) was “cell proliferation was inhibited”, the cell proliferation (HCC70 cells) was “cell proliferation was inhibited” and the cell proliferation (HCC1937 cells) was “cell proliferation was inhibited”. The “selectivity according to Plk1 expression (correlation between Plk1 expression and IC50 of each cell line)” value [6] was “selectively acts on breast cancer cells with high Plk1 expression”.
With `CC[C@@H]1C(=O)N(C)c2cnc(Nc3ccc(C(=O)NC4CCN(C)CC4)cc3OC)nc2N1C1CCCC1` [BI-2536, reference compound] the cell proliferation (SKBR3 cells) was “cell proliferation was inhibited”, the cell proliferation (T47D cells) was “cell proliferation was inhibited” and the cell proliferation (HCC1428 cells) was “cell proliferation was inhibited”. The cell proliferation (MDA-MD-453 cells) was “cell proliferation was inhibited”, the cell proliferation (MDA-MB-231 cells) was “cell proliferation was inhibited” and the cell proliferation (MDA-MB-468 cells) was “cell proliferation was inhibited”. The cell proliferation (HCC38 cells) was “cell proliferation was inhibited”, the cell proliferation (HCC70 cells) was “cell proliferation was inhibited” and the cell proliferation (HCC1937 cells) was “cell proliferation was inhibited”.
